The numbers were not newly measured in patent US11992483B2, “Emulsions for local anesthetics” (Cali Pharmaceuticals, LLC, priority 2021, dated 2024), which cites them from elsewhere.

A word on the log P: it is a log measure of how a compound divides between an organic and an aqueous phase.

Counter-ions that a name gives are not always drawn. Like-named read-outs stand apart in the source and are kept apart here.

For the data set the following is noted: for log P: octanol/water.

As for `CCCN1CCCC[C@H]1C(=O)Nc1c(C)cccc1C` [ropivacaine free base, ropivacaine], the solubility in water entry is listed as “insoluble in water”, the “log P” value is reported as 2.9 and the “P (octanol:water partition coefficient)” value is recorded as 794.
On to `CCCN1CCCC[C@H]1C(=O)Nc1c(C)cccc1C` [ropivacaine hydrochloride], for which, for the setting “hydrochloride”, the “log P” value was 1.1 and the “P (octanol:water partition coefficient)” value is 14.
